Like-named read-outs stand apart in the source and are kept apart here.
Cc1cccc([C@H](C)c2cnc[nH]2)c1C [dexmedetomidine, Dexmedetomidine]
solubility of dexmedetomidine (in Duro-Tak 87-2979): less than 2%
solubility of dexmedetomidine (in Duro-Tak 387/87-2353): 10-15%
solubility of dexmedetomidine (in hydroxyl functionalized acrylate polymer): less than 1%
solubility of dexmedetomidine (in lauryl lactate): 5 to 10%
solubility of dexmedetomidine (in levulinic acid): ~60%
solubility of dexmedetomidine (in oleic acid): ~40%
solubility of dexmedetomidine (in propylene glycolmonolaurate): 5 to 10%
